ChEMBL document CHEMBL1201862, “PubChem BioAssay data set” (2004)
Calls of active or inactive are those of the source.

Legend:
Large T antigen = Large T antigen (Simian virus 40, UniProt P03070); format: functional, Betapolyomavirus macacae;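 further: Confirmatory-stage PubChem screen for compounds that inhibit SV40 T antigen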
[1] = target: T1, Rac GTPase-activating protein 1 (Homo sapiens, UniProt Q9H0H5); experiment: MgcRacGAP GTPase-activating activity inhibitors, confirmation, biochemical, ADP Hunter fluorescence, primary and confirmatory (AID 624330); format: functional
T1 sequence (Q9H0H5 whole entry): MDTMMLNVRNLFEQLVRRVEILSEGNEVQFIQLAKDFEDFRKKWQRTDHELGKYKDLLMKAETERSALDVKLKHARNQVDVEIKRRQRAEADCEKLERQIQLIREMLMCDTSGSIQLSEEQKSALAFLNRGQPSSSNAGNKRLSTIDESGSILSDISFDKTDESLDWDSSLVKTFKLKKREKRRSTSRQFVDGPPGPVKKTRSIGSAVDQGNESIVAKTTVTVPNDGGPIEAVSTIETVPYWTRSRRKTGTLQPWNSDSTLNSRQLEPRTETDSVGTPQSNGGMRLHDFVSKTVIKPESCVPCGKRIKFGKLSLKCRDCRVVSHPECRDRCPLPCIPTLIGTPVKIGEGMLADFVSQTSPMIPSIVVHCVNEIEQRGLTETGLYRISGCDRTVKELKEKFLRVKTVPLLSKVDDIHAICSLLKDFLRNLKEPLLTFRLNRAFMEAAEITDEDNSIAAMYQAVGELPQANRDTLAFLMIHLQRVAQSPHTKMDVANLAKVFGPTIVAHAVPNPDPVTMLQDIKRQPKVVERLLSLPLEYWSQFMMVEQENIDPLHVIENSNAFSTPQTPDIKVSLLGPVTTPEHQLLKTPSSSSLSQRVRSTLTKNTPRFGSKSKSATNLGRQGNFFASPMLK

H4 = experiment: Luminescence Cell-Based Dose Response HTS to Identify Activators of 5'UTR Stem-Loop Driven Prion Protein mRNA Translation in H4 Neuroglioblastoma Cells. [Related pubchem assays: 1829 (Project Summary), 1814 (Primary HTS)]; format: functional; details: Homo sapiens
[2] = Luminescence Cell-Based Dose Response HTS to Identify Activators of Luciferase Translation or Activity in H4 […] Cells. [Related pubchem assays: 1829 (Project Summary), 1814 (Primary HTS)]; format: functional
[3] = target: T2, Corticotropin-releasing factor receptor 2/Corticotropin-releasing factor-binding protein (Homo sapiens, UniProt P24387+Q13324); experiment: activators of CRF receptor 2 with binding protein – uHTS hits, confirmation (AID 602473); format: functional; details: read-out: EC50_Mean
T2 sequence (Q13324 whole entry): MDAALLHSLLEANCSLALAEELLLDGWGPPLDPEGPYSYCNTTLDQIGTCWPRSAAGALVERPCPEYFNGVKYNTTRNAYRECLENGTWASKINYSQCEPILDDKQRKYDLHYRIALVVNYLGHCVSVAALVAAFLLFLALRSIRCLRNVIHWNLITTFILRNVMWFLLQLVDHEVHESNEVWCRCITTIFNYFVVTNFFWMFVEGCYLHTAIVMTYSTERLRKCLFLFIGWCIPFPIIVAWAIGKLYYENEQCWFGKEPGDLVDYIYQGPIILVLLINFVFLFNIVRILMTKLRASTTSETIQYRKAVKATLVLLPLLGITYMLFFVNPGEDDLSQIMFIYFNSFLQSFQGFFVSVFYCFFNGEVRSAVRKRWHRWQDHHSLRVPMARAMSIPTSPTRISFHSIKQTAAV
T2 sequence (P24387 whole entry): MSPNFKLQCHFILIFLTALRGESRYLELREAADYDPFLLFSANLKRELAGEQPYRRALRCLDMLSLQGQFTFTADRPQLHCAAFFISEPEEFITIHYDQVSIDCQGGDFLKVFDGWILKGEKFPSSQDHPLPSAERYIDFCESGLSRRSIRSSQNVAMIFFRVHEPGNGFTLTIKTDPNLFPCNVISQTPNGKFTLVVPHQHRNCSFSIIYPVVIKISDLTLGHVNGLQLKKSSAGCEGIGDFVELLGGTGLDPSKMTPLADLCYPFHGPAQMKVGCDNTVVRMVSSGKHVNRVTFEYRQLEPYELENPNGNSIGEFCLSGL

[4] = target: FAD-linked sulfhydryl oxidase ALR (Homo sapiens, UniProt P55789); experiment: inhibitors of human ALR sulfhydryl oxidase, dose response, biochemical, H2O2 detection, luminescence, cherry-pick (AID 493248)
cells [5] = format: functional, cell-based
cells [6] = format: functional, cell-based; remark: listed apart in the source
Genome polyprotein = Genome polyprotein (dengue virus type 2, UniProt P29990); experiment: Dengue-2 NS5 methyltransferase inhibitors, primary screen, biochemical, confirmation dose response (AID 588689); format: functional
Nonstructural protein 1 = Nonstructural protein 1 (Influenza A virus, UniProt Q194T2); format: functional, Influenza A virus (A/California/07/2009(H1N1))
Paired box protein Pax-8 = Paired box protein Pax-8 (Homo sapiens, UniProt Q06710); experiment: inhibitors of PAX8-driven TPO luciferase reporter, dose response, RMG-I cells, cherry-pick (AID 687027); format: functional, cell-based;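 further: luciferase reporter driven by Pax8 target thyroperoxidase promoter measured by SteadyGlo luminescence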
[7] = growth suppression of beta-catenin-knockout colon cells, dose response, cell-based, HCT116, human colon tumor (AID 1045); format: functional;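 further: HCT116 colon tumor cells with beta catenin knocked out; cells exposed to compound for 60 hours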
[8] = HEp-2 cell cytotoxicity, dose response, cytotoxicity control for RSV inhibitor project, HTS (AID 2410); format: functional; details: human respiratory syncytial virus
[9] = growth suppression of PTEN-null colon cells, dose response, cell-based, HCT116 PTEN knockout (AID 1047); format: functional;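 further: HCT116 colon tumor cells with PTEN knocked out; cells exposed to compound for 60 hours before readout; potency for loss of cell viability measured by luminescence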
Streptococcus = experiment: Group A Streptococcus viability loss, dose response, counter-screen for streptokinase expression inhibitor project, luminescence, BacTiterGlo (AID 1915); format: functional, organism-based;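 further: potency for reduction of bacterial viability or growth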
[10] = system: Streptococcus sp. 'group A'; experiment: growth inhibition of control SK(-) GAS strain, dose response, counter-screen for streptokinase expression inhibitor project, luminescence, kanamycin, BacTiterGlo, confirmation (AID 1900); format: functional, organism-based
Streptokinase A = target: T3, Streptokinase A (Streptococcus pyogenes serotype M1, UniProt P10520); experiment: S. pyogenes streptokinase expression inhibitors, potency, dose response, plasminogen activation absorbance, OD405 (AID 1914); format: functional, Streptococcus pyogenes M1 GAS;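 further: secreted streptokinase activity via plasminogen activation per viability signal from cell pellet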
T3 sequence (P10520 whole entry): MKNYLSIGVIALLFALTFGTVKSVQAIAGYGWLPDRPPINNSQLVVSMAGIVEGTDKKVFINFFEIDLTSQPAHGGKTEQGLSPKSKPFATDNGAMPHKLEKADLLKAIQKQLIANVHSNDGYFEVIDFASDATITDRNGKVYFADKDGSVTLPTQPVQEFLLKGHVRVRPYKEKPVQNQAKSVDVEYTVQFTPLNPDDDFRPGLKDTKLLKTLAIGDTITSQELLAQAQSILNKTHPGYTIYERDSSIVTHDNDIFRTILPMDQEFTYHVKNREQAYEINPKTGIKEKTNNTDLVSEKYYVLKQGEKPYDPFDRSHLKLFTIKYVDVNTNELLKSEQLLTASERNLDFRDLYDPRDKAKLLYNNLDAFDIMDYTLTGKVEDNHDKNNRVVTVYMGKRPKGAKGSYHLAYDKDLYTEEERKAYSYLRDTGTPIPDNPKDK

Protein skinhead-1 = target: T4, Protein skinhead-1 (Caenorhabditis elegans, UniProt P34707); format: functional
T4 sequence (P34707 whole entry): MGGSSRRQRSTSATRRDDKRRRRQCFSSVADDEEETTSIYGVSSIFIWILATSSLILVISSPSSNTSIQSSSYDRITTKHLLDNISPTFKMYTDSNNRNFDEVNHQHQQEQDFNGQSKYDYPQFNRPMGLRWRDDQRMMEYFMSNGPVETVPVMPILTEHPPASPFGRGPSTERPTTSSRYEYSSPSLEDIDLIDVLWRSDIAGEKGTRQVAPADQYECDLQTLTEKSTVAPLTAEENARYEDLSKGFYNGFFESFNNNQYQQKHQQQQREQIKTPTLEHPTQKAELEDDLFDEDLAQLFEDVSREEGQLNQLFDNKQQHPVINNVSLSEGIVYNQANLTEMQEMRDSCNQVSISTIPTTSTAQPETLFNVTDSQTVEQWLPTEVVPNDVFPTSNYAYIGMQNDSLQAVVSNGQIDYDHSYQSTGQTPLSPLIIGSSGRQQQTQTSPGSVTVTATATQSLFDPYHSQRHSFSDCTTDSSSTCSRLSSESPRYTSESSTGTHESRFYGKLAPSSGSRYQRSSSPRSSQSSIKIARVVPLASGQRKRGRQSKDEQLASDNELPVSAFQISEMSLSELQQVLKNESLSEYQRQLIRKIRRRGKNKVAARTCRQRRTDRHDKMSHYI

[11] = control 3'UTR Renilla luciferase suppression, dose response, counter-screen for Shn3 inhibitor project, cell-based, Clone20-Shn3RL, cherry-picked (AID 624133); format: functional

Genome polyprotein, sequence (P29990 2492-3391 limits assumed): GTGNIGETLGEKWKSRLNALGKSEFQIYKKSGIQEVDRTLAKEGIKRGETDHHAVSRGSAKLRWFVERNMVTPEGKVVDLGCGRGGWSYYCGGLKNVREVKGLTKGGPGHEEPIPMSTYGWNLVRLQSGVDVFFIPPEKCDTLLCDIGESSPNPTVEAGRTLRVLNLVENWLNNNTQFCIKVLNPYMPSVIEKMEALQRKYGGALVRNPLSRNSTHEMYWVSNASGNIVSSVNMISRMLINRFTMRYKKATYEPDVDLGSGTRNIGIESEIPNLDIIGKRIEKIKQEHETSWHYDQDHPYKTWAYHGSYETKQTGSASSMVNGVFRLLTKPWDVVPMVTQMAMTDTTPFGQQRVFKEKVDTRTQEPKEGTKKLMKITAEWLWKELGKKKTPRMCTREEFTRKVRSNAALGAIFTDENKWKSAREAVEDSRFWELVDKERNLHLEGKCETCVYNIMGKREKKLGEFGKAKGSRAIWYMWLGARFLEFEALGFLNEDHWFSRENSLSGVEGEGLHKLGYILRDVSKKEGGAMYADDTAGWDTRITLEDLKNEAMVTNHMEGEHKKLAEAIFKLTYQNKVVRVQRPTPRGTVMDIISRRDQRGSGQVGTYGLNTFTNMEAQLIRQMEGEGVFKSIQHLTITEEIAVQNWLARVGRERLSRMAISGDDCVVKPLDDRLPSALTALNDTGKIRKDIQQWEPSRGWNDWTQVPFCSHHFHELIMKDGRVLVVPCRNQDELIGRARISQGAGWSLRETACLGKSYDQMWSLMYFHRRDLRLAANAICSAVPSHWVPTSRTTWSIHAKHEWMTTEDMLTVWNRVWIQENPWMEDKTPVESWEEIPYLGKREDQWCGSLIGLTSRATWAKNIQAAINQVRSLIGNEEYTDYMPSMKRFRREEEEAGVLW
Large T antigen, sequence (P03070 whole entry): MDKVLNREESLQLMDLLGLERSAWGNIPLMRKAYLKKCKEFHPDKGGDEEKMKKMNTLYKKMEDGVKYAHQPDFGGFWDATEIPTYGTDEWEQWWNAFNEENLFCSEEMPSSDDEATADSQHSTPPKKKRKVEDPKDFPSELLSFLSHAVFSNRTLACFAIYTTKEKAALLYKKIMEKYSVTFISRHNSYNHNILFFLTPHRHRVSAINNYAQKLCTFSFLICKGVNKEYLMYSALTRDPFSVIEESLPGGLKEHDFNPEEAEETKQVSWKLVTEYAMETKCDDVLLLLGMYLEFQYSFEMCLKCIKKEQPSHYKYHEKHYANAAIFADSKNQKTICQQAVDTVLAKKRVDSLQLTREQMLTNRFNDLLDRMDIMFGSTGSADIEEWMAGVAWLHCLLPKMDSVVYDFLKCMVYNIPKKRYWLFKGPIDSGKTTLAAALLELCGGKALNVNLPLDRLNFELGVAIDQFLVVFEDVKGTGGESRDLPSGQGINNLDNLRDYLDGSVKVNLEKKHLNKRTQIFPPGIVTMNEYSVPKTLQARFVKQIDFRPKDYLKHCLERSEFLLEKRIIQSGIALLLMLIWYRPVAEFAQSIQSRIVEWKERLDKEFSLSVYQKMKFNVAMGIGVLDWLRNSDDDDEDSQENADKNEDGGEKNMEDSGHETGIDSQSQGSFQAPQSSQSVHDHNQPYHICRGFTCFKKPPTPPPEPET
Paired box protein Pax-8, sequence (Q06710 whole entry): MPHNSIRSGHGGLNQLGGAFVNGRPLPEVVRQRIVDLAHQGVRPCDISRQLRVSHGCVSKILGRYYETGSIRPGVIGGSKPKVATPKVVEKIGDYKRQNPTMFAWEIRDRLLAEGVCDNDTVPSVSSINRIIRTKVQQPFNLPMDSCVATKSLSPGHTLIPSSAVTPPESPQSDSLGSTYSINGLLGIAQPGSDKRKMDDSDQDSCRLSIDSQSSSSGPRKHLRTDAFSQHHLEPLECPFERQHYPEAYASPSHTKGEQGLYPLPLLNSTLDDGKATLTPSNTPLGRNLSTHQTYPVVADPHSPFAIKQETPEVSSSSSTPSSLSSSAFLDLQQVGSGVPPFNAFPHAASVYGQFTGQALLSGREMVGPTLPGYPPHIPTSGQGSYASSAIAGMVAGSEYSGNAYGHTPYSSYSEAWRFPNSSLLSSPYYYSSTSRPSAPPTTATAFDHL
FAD-linked sulfhydryl oxidase ALR, sequence (P55789 whole entry): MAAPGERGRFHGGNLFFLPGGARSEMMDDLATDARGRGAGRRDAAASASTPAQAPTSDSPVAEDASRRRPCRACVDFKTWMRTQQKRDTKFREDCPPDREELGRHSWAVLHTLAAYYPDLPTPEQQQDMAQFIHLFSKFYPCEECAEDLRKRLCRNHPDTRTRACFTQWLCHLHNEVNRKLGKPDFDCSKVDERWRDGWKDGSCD
Nonstructural protein 1, sequence (Q194T2 whole entry): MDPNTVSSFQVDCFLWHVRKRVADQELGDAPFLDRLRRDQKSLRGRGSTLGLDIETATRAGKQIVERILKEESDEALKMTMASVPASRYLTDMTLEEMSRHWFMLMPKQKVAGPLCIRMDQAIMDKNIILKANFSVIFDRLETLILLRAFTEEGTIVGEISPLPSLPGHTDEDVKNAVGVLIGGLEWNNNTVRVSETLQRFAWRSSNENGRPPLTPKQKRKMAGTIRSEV

## CCc1c(C)nc(N)nc1N1N=C1SC(C(C)=O)C(C)=O
Large T antigen
  IC50: 95.9 µM (active)
[1]
  IC50: 12.5 µM (active)

## O=C(Nc1ccc(Cl)c(Cl)c1)c1ccc(Cn2cc(Cl)cn2)cc1
H4
  EC50: > 120 µM (not active)
[2]
  EC50: 38.1 µM (active)

## Cc1cc(C=C(C#N)C#N)ccc1N1CCCC1
[3]
  EC50: 6.3 µM (active)

## COc1ccc(NC2CCCN(C(=O)c3c(C)noc3C)C2)cc1 (stereo not drawn)
Large T antigen
  IC50: 24 µM (active)
[4]
  AC50: 3.46 µM (active)

## COc1ccc2nc(NC3=NCCN3)sc2c1
H4
  EC50: 2.01 µM (active)
[2]
  EC50: 0.778 µM (active)

## O=C(NNC(=O)c1ccccc1Br)c1ccc(Cl)cc1
Cells [5]
  EC50: > 350 µM (not active)
Cells [6]
  EC50: > 350 µM (not active)

## COc1ccc(N=Nc2c(N)n[nH]c2N)cc1
Large T antigen
  IC50: 12 µM (active)
[4]
  AC50: 17 µM (active)

## CS(=O)(=O)c1ccc2nc(NC(=O)C3CC3)sc2c1
Cells [5]
  EC50: > 350 µM (not active)
Cells [6]
  EC50: > 350 µM (not active)

## O=C1NC(=O)C(=Cc2ccc(N3CCN(C(=O)c4ccccc4)CC3)c([N+](=O)[O-])c2)C(=O)N1
Genome polyprotein
  IC50: 19.8 µM (active)

## CC1=NN(c2ccccc2)C(=O)/C1=C\c1sccc1C
Nonstructural protein 1
  IC50: > 100 µM (active)

## CCCCCCc1cc2cc(C(=O)NC)c(=N)oc2cc1O
[3]
  EC50: 3.06 µM (active)

## COc1cc(C2c3cc4c(c(O)c3CC3COC(=O)C32)OCO4)cc(OC)c1OC (stereo not drawn)
Paired box protein Pax-8
  AC50: < 0.26 µM (active)

## CC(=O)Nc1ccccc1O
Large T antigen
  IC50: 6.2 µM (active)

## O=C1NC(=O)C(=Cc2coc3ccc(O)cc3c2=O)C(=O)N1
[1]
  IC50: 150 µM (active)
Genome polyprotein
  IC50: > 100 µM (active)

## O=C(Oc1ccc(-c2cnc3ccccc3n2)cc1)c1ccc(Cl)c([N+](=O)[O-])c1
[7]
  EC50: 34.6 µM (active)
[8]
  CC50: 25.1 µM (active)
[9]
  EC50: 48.9 µM (active)
Streptococcus
  EC50: 114 µM (active)
[10]
  EC50: 11.5 µM (active)
Streptokinase A
  EC50: > 150 µM (not active)

## O=C1NN(c2cccc(Br)c2)C(=O)/C1=C\c1ccc(O)cc1
Large T antigen
  IC50: 17.2 µM (active)
Genome polyprotein
  IC50: > 100 µM (active)

## CCOc1ccccc1NC(=O)CSc1ncnc2c1oc1ccccc12
Cells [5]
  EC50: > 350 µM (not active)
Protein skinhead-1
  IC50: > 100 µM (inactive)
Cells [6]
  EC50: > 350 µM (not active)

## CCC(Oc1ccccc1)C(=O)Nc1ccccc1N1CCCCC1 (stereo not drawn)
Streptococcus
  EC50: 19.9 µM (active)
[10]
  EC50: 10.3 µM (active)
Streptokinase A
  EC50: 15.8 µM (active)

## COc1cc(/C=C2/C(=O)NN(c3ccc(F)cc3)C2=O)cc([N+](=O)[O-])c1O
Genome polyprotein
  IC50: > 100 µM (active)

## Cc1ccc(-c2nnn(CC(=O)N(Cc3cccs3)C(C(=O)NC3CCCCC3)c3ccco3)n2)o1 (stereo not drawn)
Cells [5]
  EC50: > 350 µM (not active)
Cells [6]
  EC50: > 350 µM (not active)

## Oc1ccccc1C=NCCN1CCN(CCN=Cc2ccccc2O)C1c1ccccc1O (stereo not drawn)
Nonstructural protein 1
  IC50: 1.75 µM (active)

## Cc1noc(NS(=O)(=O)c2ccc(NC(=O)c3ccccc3NS(=O)(=O)c3ccc(F)c(F)c3)cc2)c1C
Genome polyprotein
  IC50: 33.2 µM (active)

## COc1ccc(S(=O)(=O)NCCC(=O)OCC(=O)NC2CC2)cc1
[11]
  AC50: 33.7 µM (active)

## C=CCN1C(=O)/C(=C/c2ccc(O)cc2)S/C1=N/c1nccs1
[8]
  CC50: 22.4 µM (active)
[3]
  EC50: > 53 µM (inactive)

## O=C(Nc1ccc(F)cc1)N1CCCCN2[C@@H](CO)[C@@H](c3ccc(-c4cccc(F)c4)cc3)[C@@H]2C1
Paired box protein Pax-8
  AC50: 21.3 µM (active)

## CC1=C(C(=O)O)N2C(=O)C(NC(=O)Cc3ccccc3)C2SC1 (stereo not drawn)
Streptococcus
  EC50: 2.68 µM (active)
[10]
  EC50: 1.22 µM (active)
Streptokinase A
  EC50: > 150 µM (not active)

## N/C(=N\[N+](=O)[O-])N/N=C/c1ccc(O)cc1
Large T antigen
  IC50: > 100 µM (active)
[1]
  IC50: 20.4 µM (active)

## CC/C(=N\NC(=O)CCC(=O)NCc1ccccc1)c1ccc(O)cc1
Large T antigen
  IC50: 34.6 µM (active)

## Cc1ccsc1C(=O)N/N=C/c1ccc([N+](=O)[O-])cc1
Cells [5]
  EC50: 5.99 µM (active)
Cells [6]
  EC50: > 350 µM (not active)
